Source: ChEMBL document CHEMBL3817803, “Design, Synthesis, and Evaluation of Donepezil-Like Compounds as AChE and BACE-1 Inhibitors” (ACS Med Chem Lett, 2016)
pIC50, pKi: −log10 of the molar value. Active and inactive are the calls of the source. No cut-off for these calls is given here.

Tests used:
[1] = biological target: T1, Acetylcholinesterase (Homo sapiens, UniProt P22303); assay: Non-competitive inhibition of human erythrocytes AchE using acetylthiocholine iodide as substrate incubated for 20 mins by Lineweaver-Burk plot analysis
[2] = biological target: T2, Cholinesterase (Equus caballus, UniProt P81908); assay: Mixed inhibition of horse serum BuChE using butyrylthiocoline iodide as substrate incubated for 20 mins by Lineweaver-Burk plot analysis
[3] = biological target: Cholinesterase (Equus caballus) (UniProt P81908); assay: Inhibition of horse serum BuChE using butyrylthiocoline iodide as substrate at 2 uM preincubated for 20 mins followed by 100 fold dilution by Ellman method
[4] = biological target: Beta-secretase 1 (Mus musculus) (UniProt P56818); assay: Inhibition of mouse BACE-1 at 1 uM preincubated for 10 mins followed by fluorescent peptide substrate addition measured for 30 mins by fluorescence plate reader method
[5] = biological target: Beta-secretase 1 (Mus musculus, UniProt P56818); assay: Inhibition of mouse BACE-1 preincubated for 10 mins followed by fluorescent peptide substrate addition measured for 30 mins by fluorescence plate reader method
[6] = biological target: T1, Acetylcholinesterase; assay: Inhibition of human erythrocytes AchE using acetylthiocholine iodide as substrate incubated for 20 mins by Ellman method
[7] = biological target: T2, Cholinesterase; assay: Inhibition of horse serum BuChE using butyrylthiocoline iodide as substrate incubated for 20 mins by Ellman method
[8] = Selectivity ratio of Ki for horse serum BuChE to Ki for human erythrocytes AchE
[9] = biological target: Cholinesterase (Equus caballus) (UniProt P81908); assay: Inhibition of horse serum BuChE using butyrylthiocholine iodide as substrate at 2 uM incubated for 20 mins by Ellman method
[10] = Selectivity ratio of IC50 for horse serum BuChE to IC50 for human erythrocytes AchE
[11] = biological target: T2, Cholinesterase; assay: Non-competitive inhibition of horse serum BuChE using butyrylthiocoline iodide as substrate incubated for 20 mins by Lineweaver-Burk plot analysis
[12] = biological target: T1, Acetylcholinesterase
Description: Mixed inhibition of human erythrocytes AchE using acetylthiocholine iodide as substrate incubated for 20 mins by Lineweaver-Burk plot analysis

T1 sequence (P22303 whole entry): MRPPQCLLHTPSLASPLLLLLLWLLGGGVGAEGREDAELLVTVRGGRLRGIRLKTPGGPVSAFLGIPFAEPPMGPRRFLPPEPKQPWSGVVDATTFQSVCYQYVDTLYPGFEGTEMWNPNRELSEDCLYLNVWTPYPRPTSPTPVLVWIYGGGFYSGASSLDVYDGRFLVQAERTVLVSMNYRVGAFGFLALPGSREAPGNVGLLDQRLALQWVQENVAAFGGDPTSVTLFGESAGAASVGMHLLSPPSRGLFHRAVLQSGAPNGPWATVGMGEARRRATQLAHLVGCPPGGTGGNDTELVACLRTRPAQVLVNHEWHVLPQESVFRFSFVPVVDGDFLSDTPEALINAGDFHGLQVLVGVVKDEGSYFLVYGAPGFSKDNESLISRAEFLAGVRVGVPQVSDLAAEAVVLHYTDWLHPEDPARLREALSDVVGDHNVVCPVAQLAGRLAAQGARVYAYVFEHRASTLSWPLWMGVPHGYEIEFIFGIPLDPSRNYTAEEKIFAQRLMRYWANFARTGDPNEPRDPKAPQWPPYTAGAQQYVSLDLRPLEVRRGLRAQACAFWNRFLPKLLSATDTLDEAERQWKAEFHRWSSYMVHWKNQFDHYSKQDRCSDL
T2 sequence (P81908 whole entry): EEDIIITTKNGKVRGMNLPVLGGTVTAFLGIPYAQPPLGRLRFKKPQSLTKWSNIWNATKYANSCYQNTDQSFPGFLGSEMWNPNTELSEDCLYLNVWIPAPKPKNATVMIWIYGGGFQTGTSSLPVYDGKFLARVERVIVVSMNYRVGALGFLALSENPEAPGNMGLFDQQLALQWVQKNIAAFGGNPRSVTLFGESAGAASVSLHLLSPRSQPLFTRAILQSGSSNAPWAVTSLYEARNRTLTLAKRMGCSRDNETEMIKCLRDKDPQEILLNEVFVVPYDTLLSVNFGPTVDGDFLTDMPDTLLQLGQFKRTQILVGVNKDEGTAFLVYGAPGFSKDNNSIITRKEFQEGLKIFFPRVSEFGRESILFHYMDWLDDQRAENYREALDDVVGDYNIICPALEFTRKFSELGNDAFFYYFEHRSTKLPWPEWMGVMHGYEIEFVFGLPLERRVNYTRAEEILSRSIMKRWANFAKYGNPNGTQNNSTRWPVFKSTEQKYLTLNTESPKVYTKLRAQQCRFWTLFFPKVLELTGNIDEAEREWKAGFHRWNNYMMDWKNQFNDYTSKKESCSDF
Cholinesterase (Equus caballus), sequence (P81908 whole entry): as above
Beta-secretase 1 (Mus musculus), sequence (P56818 whole entry): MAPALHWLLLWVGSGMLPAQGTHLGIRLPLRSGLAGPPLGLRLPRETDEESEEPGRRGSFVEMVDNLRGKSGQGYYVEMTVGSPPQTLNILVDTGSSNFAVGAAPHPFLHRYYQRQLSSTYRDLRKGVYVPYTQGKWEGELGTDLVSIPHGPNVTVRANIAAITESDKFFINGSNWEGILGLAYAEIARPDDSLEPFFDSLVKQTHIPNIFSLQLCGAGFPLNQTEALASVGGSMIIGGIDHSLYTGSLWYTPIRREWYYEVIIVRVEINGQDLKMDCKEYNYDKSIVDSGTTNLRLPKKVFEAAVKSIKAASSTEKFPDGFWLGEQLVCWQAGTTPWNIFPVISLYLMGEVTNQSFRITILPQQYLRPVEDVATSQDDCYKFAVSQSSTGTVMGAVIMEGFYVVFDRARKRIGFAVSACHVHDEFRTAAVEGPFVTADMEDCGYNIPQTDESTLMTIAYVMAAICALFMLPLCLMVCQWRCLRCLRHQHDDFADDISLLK
Beta-secretase 1, sequence (P56818 whole entry): as above

SMILES: COc1cc2c(cc1OC)C(=O)/C(=C/C1CCN(Cc3ccccc3)CC1)C2
- pKi [1]: 7.46
- pKi [2]: 5.61
- inhibition [3]: Active
- inhibition [4]: Active
- pIC50 [5]: > 6.00
- pIC50 [6]: 7.24
- pIC50 [7]: 5.32
- Ratio Ki [8]: 71
- inhibition [9]: inactive
- Ratio IC50 [10]: 81

SMILES: O=C1/C(=C/C2CCN(Cc3ccccc3)CC2)Cc2cccc(O)c21
- pKi [1]: 6.45
- pKi [2]: 5.19
- inhibition [3]: Active
- inhibition [4]: Active
- pIC50 [5]: > 6.00
- pIC50 [6]: 6.20
- pIC50 [7]: 5.32
- Ratio Ki [8]: 18
- inhibition [9]: inactive
- Ratio IC50 [10]: 7

SMILES: COc1cccc(CN2CCC(/C=C3\Cc4ccc(OC)cc4C3=O)CC2)c1
- pKi [1]: 3.92
- inhibition [3]: Active
- pIC50 [6]: 4.46
- pKi [11]: 5.41
- pIC50 [7]: 5.79
- Ratio Ki [8]: < 1
- inhibition [9]: inactive
- Ratio IC50 [10]: < 1

SMILES: O=C1/C(=C/C2CCN(Cc3ccccc3)CC2)Cc2cc(O)ccc21
- pKi [1]: 5.70
- pKi [2]: 5.07
- inhibition [3]: Active
- inhibition [4]: Active
- pIC50 [5]: > 6.00
- pIC50 [6]: 5.67
- pIC50 [7]: 5.12
- Ratio Ki [8]: 4
- inhibition [9]: inactive
- Ratio IC50 [10]: 4

SMILES: O=C1/C(=C/C2CCN(Cc3ccccc3)CC2)Cc2ccc(O)cc21
- pKi [1]: 5.37
- inhibition [3]: Active
- pIC50 [6]: 5.82
- pKi [11]: 5.25
- pIC50 [7]: 5.24
- Ratio Ki [8]: 1
- inhibition [9]: inactive
- Ratio IC50 [10]: 4

SMILES: COc1cccc(CN2CCC(/C=C3\Cc4cccc(OC)c4C3=O)CC2)c1
- pKi [1]: 4.76
- inhibition [3]: Active
- pIC50 [6]: 4.92
- pKi [11]: 5.62
- pIC50 [7]: 5.27
- Ratio Ki [8]: < 1
- inhibition [9]: inactive
- Ratio IC50 [10]: < 1

SMILES: COc1cc2c(cc1O)C/C(=C\C1CCN(Cc3ccccc3)CC1)C2=O
- pKi [1]: 5.55
- inhibition [3]: Active
- pIC50 [6]: 5.81
- pKi [11]: 4.97
- pIC50 [7]: 5.13
- Ratio Ki [8]: 4
- inhibition [9]: inactive
- Ratio IC50 [10]: 5

SMILES: COc1ccc2c(c1)C(=O)/C(=C/C1CCN(Cc3ccc4c(c3)OCO4)CC1)C2
- inhibition [3]: Active
- inhibition [4]: inactive
- pKi [11]: 5.36
- pIC50 [7]: 5.01
- inhibition [9]: inactive

SMILES: COc1ccc2c(c1)C(=O)/C(=C/C1CCN(Cc3ccccc3)CC1)C2
- pKi [1]: 6.59
- pKi [2]: 5.94
- inhibition [3]: Active
- pIC50 [6]: 6.47
- pIC50 [7]: 5.58
- Ratio Ki [8]: 4
- inhibition [9]: inactive
- Ratio IC50 [10]: 8

SMILES: COc1ccc2c(c1)C/C(=C\C1CCN(Cc3ccccc3)CC1)C2=O
- pKi [1]: 7.54
- inhibition [3]: Active
- inhibition [4]: Active
- pIC50 [5]: > 6.00
- pIC50 [6]: 7.37
- pKi [11]: 5.50
- pIC50 [7]: 5.24
- Ratio Ki [8]: 110
- inhibition [9]: inactive
- Ratio IC50 [10]: 132

SMILES: O=C1/C(=C/C2CCN(Cc3ccccc3)CC2)Cc2cc3c(cc21)OCO3
- inhibition [3]: Active
- inhibition [4]: Active
- pIC50 [5]: > 6.00
- pIC50 [6]: 6.12
- pKi [11]: 5.14
- pKi [12]: 6.01
- pIC50 [7]: 4.82
- Ratio Ki [8]: 7
- inhibition [9]: inactive
- Ratio IC50 [10]: 20

SMILES: COc1cccc2c1C(=O)/C(=C/C1CCN(Cc3ccc4c(c3)OCO4)CC1)C2
- inhibition [3]: Active
- inhibition [4]: inactive
- pKi [11]: 5.19
- pIC50 [7]: 5.32
- inhibition [9]: inactive

SMILES: COc1cccc(CN2CCC(/C=C3\Cc4cc(OC)ccc4C3=O)CC2)c1
- pKi [1]: 6.26
- inhibition [3]: Active
- inhibition [4]: Active
- pIC50 [5]: > 6.00
- pIC50 [6]: 6.07
- pKi [11]: 5.46
- pIC50 [7]: 5.66
- Ratio Ki [8]: 6
- inhibition [9]: inactive
- Ratio IC50 [10]: 3

SMILES: COc1cc2c(cc1O)C(=O)/C(=C/C1CCN(Cc3ccccc3)CC1)C2
- pKi [1]: 5.55
- inhibition [3]: Active
- pIC50 [6]: 5.81
- pKi [11]: 4.97
- pIC50 [7]: 5.13
- Ratio Ki [8]: 4
- inhibition [9]: inactive
- Ratio IC50 [10]: 5

SMILES: COc1cccc2c1C(=O)/C(=C/C1CCN(Cc3ccccc3)CC1)C2
- pKi [1]: 5.74
- pKi [2]: 5.51
- inhibition [3]: Active
- pIC50 [6]: 5.82
- pIC50 [7]: 5.94
- Ratio Ki [8]: 2
- inhibition [9]: inactive
- Ratio IC50 [10]: 1
